# Results published in patent publication US8461178B2, “Naphthyridine derivatives and the use thereof as kinase inhibitors” (Aeterna Zentaris GmbH, priority 2009, dated 2013).
# Like-named read-outs stand apart in the source and are kept apart here.
# Legend:
# Aurora-B = target: T1, Aurora-B (Homo sapiens, UniProt Q96GD4); experiment: Cell-free kinase assay (ALPHA technology), Aurora-B; assay type: biochemical
# T1 construct: in some cases as full-length kinases, in some cases as truncated fragments; purchased Upstate/Millipore #14-835
# T1 sequence (Q96GD4 whole entry, the tested form may be a part): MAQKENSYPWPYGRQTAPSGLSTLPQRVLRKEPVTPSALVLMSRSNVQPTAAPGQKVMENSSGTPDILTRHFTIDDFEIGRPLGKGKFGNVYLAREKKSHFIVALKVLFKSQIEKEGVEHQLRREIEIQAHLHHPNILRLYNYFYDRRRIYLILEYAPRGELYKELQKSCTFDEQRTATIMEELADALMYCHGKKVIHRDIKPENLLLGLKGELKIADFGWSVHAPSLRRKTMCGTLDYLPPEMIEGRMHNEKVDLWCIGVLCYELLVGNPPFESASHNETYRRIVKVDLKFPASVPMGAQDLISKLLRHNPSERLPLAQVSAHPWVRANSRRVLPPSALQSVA
# Method: The kinase reaction was stopped by adding 10 μl of the ALPHA bead mix (10 μg/ml, #6760617/PerkinElmer), pre-incubated with anti-phospho PLK antibody (100 pM, #5070, Cell Signaling), in 25 mM Tris, 200 mM NaCl, 100 mM EDTA and 0.3% BSA, and left to stand overnight. The luminiscence was detected the next morning in a Envision instrument (Perkin Elmer). […] 0% controls contained no ATP whereas the 100% controls contained no test substance. The IC50 values were determined with GraphPadPrism.
# Erk2 = target: T2, Erk2 (Homo sapiens, UniProt P28482); experiment: Cell-free kinase assay (ALPHA technology), Erk2; assay type: biochemical; details: for dual activity against Aurora-B and Erk2 (or cRaf-Mek-Erk cascade respectively): in words; for IC50: at 10 μM ATP
# T2 construct: in some cases as full-length kinases, in some cases as truncated fragments
# T2 sequence (P28482 whole entry, the tested form may be a part): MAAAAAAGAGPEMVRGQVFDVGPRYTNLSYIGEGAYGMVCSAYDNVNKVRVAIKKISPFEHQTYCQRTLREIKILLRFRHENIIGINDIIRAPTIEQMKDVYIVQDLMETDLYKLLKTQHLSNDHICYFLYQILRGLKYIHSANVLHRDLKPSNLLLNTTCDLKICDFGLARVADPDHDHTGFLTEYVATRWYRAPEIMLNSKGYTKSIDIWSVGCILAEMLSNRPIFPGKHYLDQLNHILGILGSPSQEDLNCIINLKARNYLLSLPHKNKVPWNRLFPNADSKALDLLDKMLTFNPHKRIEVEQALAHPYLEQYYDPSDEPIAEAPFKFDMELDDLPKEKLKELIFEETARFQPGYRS
# Method: (§1) The controls were determined 16 fold. 0% controls contained no ATP whereas the 100% controls contained no test substance. The IC50 values were determined with GraphPadPrism.
# cRaf-Mek1-Erk2 = cRaf-Mek1-Erk2 (Homo sapiens, UniProt P04049+P28482+Q02750); details: read-out: IC50 cRaf-Mek-Erk; at 10 μM ATP
# Chain of cRaf-Mek1-Erk2 (P04049 whole entry, the tested form may be a part): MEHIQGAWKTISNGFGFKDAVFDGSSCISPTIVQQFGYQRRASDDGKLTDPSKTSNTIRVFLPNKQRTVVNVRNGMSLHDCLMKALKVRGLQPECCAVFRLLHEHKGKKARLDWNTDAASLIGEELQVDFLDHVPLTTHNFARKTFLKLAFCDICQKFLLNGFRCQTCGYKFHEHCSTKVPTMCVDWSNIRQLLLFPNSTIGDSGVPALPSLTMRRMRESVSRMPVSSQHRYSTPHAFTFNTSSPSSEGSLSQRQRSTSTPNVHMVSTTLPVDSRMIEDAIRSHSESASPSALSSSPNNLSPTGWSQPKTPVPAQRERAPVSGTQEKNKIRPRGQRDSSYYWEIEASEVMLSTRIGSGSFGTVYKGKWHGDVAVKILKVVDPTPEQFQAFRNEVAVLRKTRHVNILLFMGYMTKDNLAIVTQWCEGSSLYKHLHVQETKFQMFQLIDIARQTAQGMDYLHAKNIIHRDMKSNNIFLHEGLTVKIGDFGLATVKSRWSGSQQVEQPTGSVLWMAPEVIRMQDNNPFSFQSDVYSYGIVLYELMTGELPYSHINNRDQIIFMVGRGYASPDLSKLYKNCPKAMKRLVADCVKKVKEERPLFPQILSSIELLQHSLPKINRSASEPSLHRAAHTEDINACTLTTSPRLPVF
# Chain of cRaf-Mek1-Erk2 (Q02750 whole entry, the tested form may be a part): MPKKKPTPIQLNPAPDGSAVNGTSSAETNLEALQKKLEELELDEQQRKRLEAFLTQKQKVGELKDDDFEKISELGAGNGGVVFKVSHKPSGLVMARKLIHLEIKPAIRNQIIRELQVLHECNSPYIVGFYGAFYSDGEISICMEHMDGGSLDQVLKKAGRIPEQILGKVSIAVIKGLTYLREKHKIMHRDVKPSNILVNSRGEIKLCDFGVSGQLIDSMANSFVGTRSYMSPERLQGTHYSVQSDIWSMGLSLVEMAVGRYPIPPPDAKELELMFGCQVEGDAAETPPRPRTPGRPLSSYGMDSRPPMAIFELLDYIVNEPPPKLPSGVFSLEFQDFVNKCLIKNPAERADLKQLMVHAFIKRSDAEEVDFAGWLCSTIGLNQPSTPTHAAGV
# Chain of cRaf-Mek1-Erk2 (P28482 2-360): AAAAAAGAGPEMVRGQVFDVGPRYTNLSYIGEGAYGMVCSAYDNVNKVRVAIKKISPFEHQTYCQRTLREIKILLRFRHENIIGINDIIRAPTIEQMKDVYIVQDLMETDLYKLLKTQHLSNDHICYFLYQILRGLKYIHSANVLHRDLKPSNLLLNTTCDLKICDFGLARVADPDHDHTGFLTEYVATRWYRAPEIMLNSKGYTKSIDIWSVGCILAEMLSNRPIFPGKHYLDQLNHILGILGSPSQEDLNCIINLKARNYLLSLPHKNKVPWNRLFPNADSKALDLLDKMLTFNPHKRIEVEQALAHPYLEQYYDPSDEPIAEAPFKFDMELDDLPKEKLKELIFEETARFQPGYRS
# Method: The inhibitory effect of the inventive compounds was tested on various human serine/threonine kinases and tyrosine kinases in enzymatic assays. Recombinant human kinases, for example Aurora-B, cRaf-Mek1-Erk2, Erk2, Pim-1, HIPK1, KDR, TrkA, Yes, c-Abl and others were used, in some cases as full-length kinases, in some cases as truncated fragments—but at least consisting of the functional kinase domains. The commercial kinase proteins (Proqinase, Millipore) were used as recombinant fusion proteins with GST (glutathione S-transferase) tag or His tag. Depending on the substrate type, the different kinase reactions were quantified by suitable ALPHA™ beads (PerkinElmer).
# The calculation of % inhibition values per substance concentration was done by means of the following formula from the raw data determined in the Envision reader:
# as §1
# [1] = at 10 μM ATP, read-out: IC50 Aurora-B
# [2] = read-out: IC50 values against Aurora-B
SMILES,melting point [°C],IC50 (Aurora-B; [1]) [µM],dual activity against Aurora-B and Erk2 (or cRaf-Mek-Erk cascade respectively) (Erk2),IC50 (cRaf-Mek1-Erk2) [µM],IC50 (Erk2) [µM],IC50 (Aurora-B; [2]) [µM]
"Cn1cc(-c2cnc3ccc(NC(=O)NCc4ccccc4)nc3c2)cn1 [Compound 28, 1-Benzyl-3-[7-(1-methyl-1H-pyrazol-4-yl)-[1,5]naphthyridin-2-yl]-urea]",257 to 258,0.579,dual activity,,,
"O=C(Nc1ccnc2cc(-c3ccsc3)cnc12)NC1CC1 [Compound 36, 1-Cyclopropyl-3-(7-thiophen-3-yl-[1,5]naphthyridin-4-yl)-urea]",228 to 229,0.103,,3.85,> 100,
"Cn1cc(-c2cnc3c(NC(=O)NCC(F)(F)F)ccnc3c2)cn1 [Compound 20, 1-[7-(1-Methyl-1H-pyrazol-4-yl)-[1,5]naphthyridin-4-yl]-3-(2,2,2-trifluoro-ethyl)-urea]",> 300,0.129,,27.3,> 100,
"Cn1cc(-c2cnc3ccc(NC(=O)NCCc4ccccc4)nc3c2)cn1 [Compound 5, 1-[7-(1-Methyl-1H-pyrazol-4-yl)-[1,5]naphthyridin-2-yl]-3-phenethyl-urea]",237 to 238,0.171,dual activity,0.008,0.733,
"Cn1cc(-c2cnc3ccc(NC(=O)NC(C)(C)C)nc3c2)cn1 [Compound 26, 1-tert-Butyl-3-[7-(1-methyl-1H-pyrazol-4-yl)-[1,5]naphthyridin-2-yl]-urea]",,0.26,dual activity,0.096,0.429,
"CCNC(=O)Nc1ccnc2cc(-c3cc(C)c(O)c(C)c3)cnc12 [Compound 16, 1-Ethyl-3-[7-(4-hydroxy-3,5-dimethyl-phenyl)-[1,5]naphthyridin-4-yl]-urea]",213 to 214,3.85,,> 31.6,> 31.6,
"CC(C)(C)NC(=O)Nc1ccnc2cc(-c3cc(Cl)c(O)c(Cl)c3)cnc12 [Compound 13, 1-tert-Butyl-3-[7-(3,5-dichloro-4-hydroxy-phenyl)-[1,5]naphthyridin-4-yl]-urea]",> 300,0.5,,11,> 100,
"CCCCCCNC(=O)Nc1ccnc2cc(-c3cnn(C)c3)cnc12 [Compound 25, 1-Hexyl-3-[7-(1-methyl-1H-pyrazol-4-yl)-[1,5]naphthyridin-4-yl]-urea]",188 to 189,0.885,,> 100,> 100,
"COc1ccc(-c2cnc3ccc(NC(=O)NC(C)(C)C)nc3c2)cc1OC [Compound 3, 1-tert-Butyl-3-[7-(3,4-dimethoxy-phenyl)-[1,5]naphthyridin-2-yl]-urea]",279 to 280,0.805,dual activity,1.12,1.72,
"CC(C)NC(=O)Nc1ccnc2cc(-c3cnn(C)c3)cnc12 [Compound 30, 1-Isopropyl-3-[7-(1-methyl-1H-pyrazol-4-yl)-[1,5]naphthyridin-4-yl]-urea]",,0.137,,2.17,> 100,
"Cn1cc(-c2cnc3c(NC(=O)NC4CCC4)ccnc3c2)cn1 [Compound 17, 1-Cyclobutyl-3-[7-(1-methyl-1H-pyrazol-4-yl)-[1,5]naphthyridin-4-yl]-urea]",215 to 216,0.048,,2.17,> 100,< 0.1
"Cn1cc(-c2cnc3c(NC(=O)NC4CCCCC4)ccnc3c2)cn1 [Compound 22, 1-Cyclohexyl-3-[7-(1-methyl-1H-pyrazol-4-yl)-[1,5]naphthyridin-4-yl]-urea]",200 to 201,0.354,,> 31.6,> 100,
"Cn1cc(-c2cnc3c(NC(=O)NC4CCCC4)ccnc3c2)cn1 [Compound 34, 1-Cyclopentyl-3-[7-(1-methyl-1H-pyrazol-4-yl)-[1,5]naphthyridin-4-yl]-urea]",207 to 208,0.108,,0.676,4.08,
"CCCCNC(=O)Nc1ccnc2cc(-c3cnn(C)c3)cnc12 [Compound 32, 1-Butyl-3-[7-(1-methyl-1H-pyrazol-4-yl)-[1,5]naphthyridin-4-yl]-urea]",219 to 220,0.164,,12.8,> 31.6,
"COc1cc(-c2cnc3c(NC(=O)NC4CC4)ccnc3c2)ccc1O [Compound 14, 1-Cyclopropyl-3-[7-(4-hydroxy-3-methoxy-phenyl)-[1,5]naphthyridin-4-yl]-urea]",235 to 236,0.108,,18.1,> 100,
"Cn1cc(-c2cnc3c(NC(=O)NCCCCc4ccccc4)ccnc3c2)cn1 [Compound 21, 1-[7-(1-Methyl-1H-pyrazol-4-yl)-[1,5]naphthyridin-4-yl]-3-(4-phenyl-butyl)-urea]",185 to 186,0.141,,16.9,> 31.6,
"Cn1cc(-c2cnc3c(NC(=O)NC4CC4)ccnc3c2)cn1 [Compound 18, 1-Cyclopropyl-3-[7-(1-methyl-1H-pyrazol-4-yl)-[1,5]naphthyridin-4-yl]-urea]",223 to 224,0.013,,7.45,> 100,< 0.1
"CCNC(=O)Nc1ccnc2cc(-c3ccc(O)c(OC)c3)cnc12 [Compound 9, 1-Ethyl-3-[7-(4-hydroxy-3-methoxy-phenyl)-[1,5]naphthyridin-4-yl]-urea]",202 to 203,0.37,,> 31.6,~100,
"COc1cc(-c2cnc3ccc(NC(=O)NC(C)(C)C)nc3c2)ccc1O [Compound 4, 1-tert-Butyl-3-[7-(4-hydroxy-3-methoxy-phenyl)-[1,5]naphthyridin-2-yl]-urea]",286 to 287,0.227,dual activity,,,
"COc1cc(-c2cnc3c(NC(=O)NC(C)(C)C)ccnc3c2)ccc1O [Compound 12, 1-tert-Butyl-3-[7-(4-hydroxy-3-methoxy-phenyl)-[1,5]naphthyridin-4-yl]-urea]",158 to 159,1.58,,> 31.6,> 100,
"COc1ccc(-c2cnc3c(NC(=O)NC(C)(C)C)ccnc3c2)cc1OC [Compound 8, 1-tert-Butyl-3-[7-(3,4-dimethoxy-phenyl)-[1,5]naphthyridin-4-yl]-urea]",215 to 216,0.714,,~100,> 100,
"O=C(Nc1ccnc2cc(-c3cn[nH]c3)cnc12)NC1CC1 [Compound 35, 1-Cyclopropyl-3-[7-(1H-pyrazol-4-yl)-[1,5]naphthyridin-4-yl]-urea]",229 to 231,0.085,,4.65,> 100,
"CCNC(=S)Nc1ccc2ncc(Nc3cc(OC)c(OC)c(OC)c3)cc2n1 [Compound 6, 1-Ethyl-3-[7-(3,4,5-trimethoxy-phenylamino)-[1,5]naphthyridin-2-yl]-thiourea]",237 to 238,,,,,
"Cn1cc(-c2cnc3c(NC(=O)NCc4ccccc4)ccnc3c2)cn1 [Compound 31, 1-Benzyl-3-[7-(1-methyl-1H-pyrazol-4-yl)-[1,5]naphthyridin-4-yl]-urea]",237 to 238,0.066,,> 100,> 100,
"CCNC(=O)Nc1ccc2ncc(-c3ccc(OC)c(OC)c3)cc2n1 [Compound 2, 1-[7-(3,4-Dimethoxy-phenyl)-[1,5]naphthyridin-2-yl]-3-ethyl-urea]",218 to 219,0.624,dual activity,,,
"Cn1cc(-c2cnc3ccc(NC(=O)Nc4ccccc4)nc3c2)cn1 [Compound 27, 1-[7-(1-Methyl-1H-pyrazol-4-yl)-[1,5]naphthyridin-2-yl]-3-phenyl-urea]",,1.14,dual activity,0.157,0.191,
"CCNC(=O)Nc1ccc2ncc(-c3ccc(OC)cc3)cc2n1 [Compound 1, 1-Ethyl-3-[7-(4-methoxy-phenyl)-[1,5]naphthyridin-2-yl]urea]",264 to 265,2.23,dual activity,,,
